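Results reflect a 48-hour exposure of cells in 96-well plates to compound at five concentrations. GI50 is the concentration that inhibits growth by half.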 Activity calls are given as the source filed them. No stated cut-off is given here; in the data, active = GI50 up to about 1.1 µM and inactive = higher.
Columns and labels:
Test in all cases: NCI anticancer screen, dose series, 48 h
[1] = system: SW-620
[2] = system: IGROV-1
[3] = system: EKVX
[4] = system: XF498
[5] = system: HOP-92
[6] = system: KM-20L2
[7] = system: UACC-62
[8] = system: 786-0
[9] = system: A549
[10] = system: SK-OV-3
[11] = system: NCI-H522
[12] = system: Malme-3M
[13] = system: NCI-H226
[14] = system: RPMI-8226
[15] = system: NCI-H23
[16] = system: K562
[17] = system: SR
[18] = system: MDA-N
[19] = system: MDA-MB-231
[20] = system: MCF7

Structure (SMILES)	GI50 [1]	GI50 [2]	GI50 [3]	GI50 [4]	GI50 [5]	GI50 [6]	GI50 [7]	GI50 [8]	GI50 [9]	GI50 [10]	GI50 [11]	GI50 [12]	GI50 [13]	GI50 [14]	GI50 [15]	GI50 [16]	GI50 [17]	GI50 [18]	GI50 [19]	GI50 [20]
CCN1CCC(O)(c2ccc(Cl)c(Cl)c2)C(C(=O)c2ccc(Cl)c(Cl)c2)C1 (centres undefined)	19.5 µM (inactive)	20.6 µM (inactive)	18.5 µM (inactive)	19.2 µM (inactive)	14.5 µM (inactive)	17.9 µM (inactive)	17 µM (inactive)	15.4 µM (inactive)	19.4 µM (inactive)	18.2 µM (inactive)	3.71 µM (inactive)	18.2 µM (inactive)	21.4 µM (inactive)	1.65 µM (inactive)	19.7 µM (inactive)	18 µM (inactive)	–	–	–	–
CN(C)P(=O)(/C(N)=N/Nc1ccc([N+](=O)[O-])cc1)N(C)C	> 100 µM (inactive)	–	> 100 µM (inactive)	> 100 µM (inactive)	41.4 µM (inactive)	> 100 µM (inactive)	> 100 µM (inactive)	> 100 µM (inactive)	> 100 µM (inactive)	–	48 µM (inactive)	> 100 µM (inactive)	> 100 µM (inactive)	> 100 µM (inactive)	62.4 µM (inactive)	> 100 µM (inactive)	> 100 µM (inactive)	–	–	–
CC12CCC(=O)N1c1cccnc1N2 (centres undefined)	> 100 µM (inactive)	> 100 µM (inactive)	> 100 µM (inactive)	> 100 µM (inactive)	> 100 µM (inactive)	> 100 µM (inactive)	> 100 µM (inactive)	> 100 µM (inactive)	> 100 µM (inactive)	> 100 µM (inactive)	> 100 µM (inactive)	> 100 µM (inactive)	> 100 µM (inactive)	> 100 µM (inactive)	> 100 µM (inactive)	> 100 µM (inactive)	–	–	–	–
COc1cc(C(=O)C/C(CCC(=O)Nc2ccc(Cl)cc2Cl)=N/Nc2nnc(C)n2N)ccc1O	> 100 µM (inactive)	> 100 µM (inactive)	67.1 µM (inactive)	> 100 µM (inactive)	> 100 µM (inactive)	> 100 µM (inactive)	> 100 µM (inactive)	> 100 µM (inactive)	> 100 µM (inactive)	> 100 µM (inactive)	> 100 µM (inactive)	> 100 µM (inactive)	> 100 µM (inactive)	> 100 µM (inactive)	> 100 µM (inactive)	> 10 µM (inactive)	> 100 µM (inactive)	–	–	–
COc1cc2c([C@@H](OC(=O)c3ccccc3)c3ccc4c(c3)OCO4)nccc2c(OC)c1OC	> 100 µM (inactive)	> 100 µM (inactive)	43.6 µM (inactive)	13.6 µM (inactive)	65.5 µM (inactive)	42.1 µM (inactive)	14.7 µM (inactive)	> 100 µM (inactive)	17.3 µM (inactive)	> 100 µM (inactive)	19.4 µM (inactive)	64.6 µM (inactive)	23.5 µM (inactive)	9.71 µM (inactive)	23.7 µM (inactive)	24.9 µM (inactive)	17.8 µM (inactive)	–	–	–
O=c1[nH][nH]c(=O)[nH]1	> 100 µM (inactive)	> 100 µM (inactive)	> 100 µM (inactive)	> 100 µM (inactive)	> 100 µM (inactive)	> 100 µM (inactive)	> 100 µM (inactive)	> 100 µM (inactive)	> 100 µM (inactive)	> 100 µM (inactive)	> 100 µM (inactive)	> 100 µM (inactive)	> 100 µM (inactive)	> 100 µM (inactive)	> 100 µM (inactive)	> 100 µM (inactive)	> 100 µM (inactive)	–	–	–
Nn1c(S)nnc1N/N=C1/C(=O)Nc2ccccc21	78.2 µM (inactive)	59.2 µM (inactive)	> 100 µM (inactive)	37.9 µM (inactive)	56.1 µM (inactive)	> 100 µM (inactive)	71.8 µM (inactive)	> 100 µM (inactive)	83.2 µM (inactive)	43.7 µM (inactive)	44.9 µM (inactive)	> 100 µM (inactive)	42.1 µM (inactive)	63.2 µM (inactive)	16.9 µM (inactive)	59 µM (inactive)	39.6 µM (inactive)	–	–	–
N#C/C(=C1\OC(=N)C(c2ccc(Cl)cc2Cl)C1=O)c1ccc(Cl)cc1Cl (centres undefined)	> 100 µM (inactive)	> 100 µM (inactive)	24.2 µM (inactive)	86.9 µM (inactive)	80.5 µM (inactive)	> 100 µM (inactive)	> 100 µM (inactive)	> 100 µM (inactive)	> 100 µM (inactive)	> 100 µM (inactive)	> 100 µM (inactive)	> 100 µM (inactive)	> 100 µM (inactive)	> 100 µM (inactive)	> 100 µM (inactive)	> 100 µM (inactive)	–	–	–	–
NC(=O)N/N=C(/c1nc2ccc([N+](=O)[O-])cc2nc1O)C(O)c1ccco1 (centres undefined)	44.6 µM (inactive)	73.3 µM (inactive)	–	> 100 µM (inactive)	> 100 µM (inactive)	10.4 µM (inactive)	29.2 µM (inactive)	97.5 µM (inactive)	93.8 µM (inactive)	> 100 µM (inactive)	14.7 µM (inactive)	> 100 µM (inactive)	> 100 µM (inactive)	43 µM (inactive)	> 100 µM (inactive)	33.9 µM (inactive)	57.1 µM (inactive)	–	–	–
CCOC(=O)C(C(=O)OCC)S(C)(=O)=O	> 100 µM (inactive)	> 100 µM (inactive)	> 100 µM (inactive)	> 100 µM (inactive)	> 100 µM (inactive)	> 100 µM (inactive)	> 100 µM (inactive)	> 100 µM (inactive)	> 100 µM (inactive)	> 100 µM (inactive)	> 100 µM (inactive)	> 100 µM (inactive)	> 100 µM (inactive)	> 100 µM (inactive)	> 100 µM (inactive)	> 100 µM (inactive)	> 100 µM (inactive)	–	–	–
CC12C=CC(=O)C=C1CCC1C3CCC(O)(C(=O)CO)C3(C)CC(O)C12F (centres undefined)	> 100 µM (inactive)	> 100 µM (inactive)	43.5 µM (inactive)	> 100 µM (inactive)	> 100 µM (inactive)	> 100 µM (inactive)	> 100 µM (inactive)	> 100 µM (inactive)	> 100 µM (inactive)	> 4.88 µM (inactive)	> 100 µM (inactive)	> 100 µM (inactive)	> 100 µM (inactive)	17.1 µM (inactive)	> 100 µM (inactive)	> 100 µM (inactive)	> 100 µM (inactive)	> 100 µM (inactive)	> 100 µM (inactive)	> 100 µM (inactive)
COC(=O)c1cc2cc(OC)c(OC)cc2cc(C(=O)OC)c1=O	35.3 µM (inactive)	> 100 µM (inactive)	> 100 µM (inactive)	> 100 µM (inactive)	> 100 µM (inactive)	> 100 µM (inactive)	> 100 µM (inactive)	> 100 µM (inactive)	> 100 µM (inactive)	> 100 µM (inactive)	> 100 µM (inactive)	> 100 µM (inactive)	–	> 100 µM (inactive)	> 100 µM (inactive)	> 100 µM (inactive)	–	–	–	–
c1cncc(C2c3[nH]c4ccccc4c3CCN2CCN2CCCCC2)c1 (centres undefined)	> 100 µM (inactive)	> 100 µM (inactive)	> 100 µM (inactive)	> 100 µM (inactive)	30 µM (inactive)	> 100 µM (inactive)	> 100 µM (inactive)	> 100 µM (inactive)	> 100 µM (inactive)	> 100 µM (inactive)	> 100 µM (inactive)	–	–	62.8 µM (inactive)	> 100 µM (inactive)	35.6 µM (inactive)	> 100 µM (inactive)	–	–	–
CNC(SC)=C1C(=O)OC(C)(C)OC1=O	20 µM (inactive)	> 100 µM (inactive)	> 100 µM (inactive)	> 100 µM (inactive)	> 100 µM (inactive)	> 100 µM (inactive)	> 100 µM (inactive)	> 100 µM (inactive)	> 100 µM (inactive)	> 100 µM (inactive)	> 100 µM (inactive)	> 100 µM (inactive)	> 100 µM (inactive)	> 100 µM (inactive)	> 100 µM (inactive)	> 100 µM (inactive)	> 100 µM (inactive)	–	–	–
COc1ccc(C2=NN(c3ccccc3)C[N+](c3ccc(C)cc3)=N2)cc1	25.6 µM (inactive)	39.3 µM (inactive)	44.3 µM (inactive)	25.3 µM (inactive)	–	59 µM (inactive)	–	43.6 µM (inactive)	59.7 µM (inactive)	–	12.7 µM (inactive)	48.3 µM (inactive)	55.3 µM (inactive)	26.9 µM (inactive)	41.3 µM (inactive)	14.6 µM (inactive)	34 µM (inactive)	–	–	–
CN(C)CCNC(=O)c1ccc(Cl)c2c(Nc3ccc(S(N)(=O)=O)cc3)c3ccccc3nc12	0.173 µM (active)	2.72 µM (inactive)	5.62 µM (inactive)	0.165 µM (active)	1.43 µM (inactive)	2.68 µM (inactive)	1.56 µM (inactive)	1.55 µM (inactive)	2.64 µM (inactive)	2.22 µM (inactive)	0.462 µM (active)	3.46 µM (inactive)	1.45 µM (inactive)	4.5 µM (inactive)	2.97 µM (inactive)	0.612 µM (active)	0.151 µM (active)	–	–	–
CC(O)c1ccc[n+](Cc2ccccc2)c1 (centres undefined)	> 400 µM (inactive)	> 400 µM (inactive)	> 400 µM (inactive)	> 400 µM (inactive)	> 400 µM (inactive)	> 400 µM (inactive)	> 400 µM (inactive)	> 400 µM (inactive)	> 400 µM (inactive)	> 400 µM (inactive)	> 400 µM (inactive)	> 400 µM (inactive)	> 400 µM (inactive)	> 400 µM (inactive)	> 400 µM (inactive)	> 400 µM (inactive)	> 400 µM (inactive)	–	–	–
